Patent US9220746B2, “Compounds and methods for treating bone disorders and controlling weight” (The University of North Carolina at Chapel Hill, priority 2009, dated 2015)

B1: IGFBP-2: Insulin-like growth factor binding protein-2, 36,000 dalton protein, purified from cellular conditioned medium (protein, UniProt P18065 36-325, looked up)
Insulin-like growth …: AEVLFRCPPCTPERLAACGPPPVAPPAAVAAVAGGARMPCAELVREPGCGCCSVCARLEGEACGVYTPRCGQGLRCYPHPGSELPLQALVMGEGTCEKRRDAEYGASPEQVADNGDDHSEGGLVENHVDSTMNMLGGGGSAGRKPLKSGMKELAVFREKVTEQHRQMGKGGKHHLGLEEPKKLRPPPARTPCQQELDQVLERISTMRLPDERGPLEHLYSLHIPNCDKHGLYNLKQCKMSLNGQRGECWCVNPNTGKLIQGAPTIRGDPECHLFYNEQQEARGVHTQRMQ

How the values were obtained:
3T3L1 = test: Fat cell differentiation of 3T3L1 cells, oil red O staining; type: cell-based
Protocol: In some assays, fat cell data were obtained by using the cell line 3T3L1, which is used to study fat cell differentiation. These cells are grown as fat cell precursors. These cells are maintained in Hams F12 with fetal calf serum and 15 mM glutamine. To stimulate them to enter the fat cell differentiation pathway, isomethylbutylxanine, dexamethasone and insulin are added using concentrations of 0.5 mM IBMX 16.7 nM insulin and 0.1 uM dexamethasone. In some cases 100 ng/ml IGF-I was added instead of insulin. Three days after the addition, differentiation into adipocytes is apparent and is detected by oil red O staining.
To determine the effects of the peptide of SEQ ID NO:1, it was added at concentrations of 20 ng/ml, 200 ng/ml and 2 ug/ml. A detectable inhibition of adipocyte differentiation, as determined by a decrease in the number of oil red O positive cells, was detected using 20 ng/ml of peptide. The response was maximal at 200 ng/ml and not increased further by adding 2 mcg/ml.
For oil red O staining, a stock solution of […] isoproponol is prepared. 60 ml of solution is mixed with 40 ml of water and allowed to sit at room temperature for an hour and then filtered. The media is aspirated from the adipocyte cultures and cells are fixed in 1% formaldehyde. Formaldehyde is aspirated and the oil red O solution is added in an amount necessary to cover the cells, which are then left at room temperature for one hour. The stain is then removed and the plates are washed with distilled water and dried. Typically 60-70% of the cells stain positive after 3 days.

adherent macrophages = test: Osteoclast differentiation, tartrate resistant acid phosphatase staining; type: cell-based, mouse; details: for osteoclast differentiation: macrophages of IGFBP-2 gene deleted Balb/c mice, mCSF, RANK ligand, TRAP stain day 7
From the text: The method for osteoclast differentiation is as follows: Balb/c mice in which the IGFBP-2 gene had been deleted (see V. DeMambro et al, Endocrinology, 149(5): 2051-2061 (2007)) were anesthetized and sacrificed using cervical dislocation. The femurs from each mouse were dissected free of soft tissue and the bone marrow aspirated by needle puncture. Cells were removed sterile and resuspended in DMEM with 10% fetal calf serum. The cells were centrifuged at 700×g and the cell pellet resuspended in medium and plated in 24 well plates at a concentration of 5000 cells/cm^2. The plates that are used are low adherence plates that have no additives to facilitate cell adherence. Under these conditions macrophages will adhere while other cells will not. The media is supplemented with mCSF 20 ng/ml. After 3 days the cells are removed from the plate and the adherent macrophages are exposed to fresh media containing 10% FBS and mCSF. This is repeated again after 3 days and then after an additional 3 days cells are trypsinized and replated in fresh plates at 6×10^4 cells/cm. At this time RANK ligand, 50 ng/ml, is added, although in some experiments concentrations as low as 10 ng/ml were utilized. Medium is changed at 3 and 6 days and on day 7 cells are stained for tartrate resistant acid phosphatase, a marker of osteoclast differentiation. IGFBP-2 was added at concentrations between 50 ng/ml and 500 mcg/ml. The peptide was added at 20 or 200 ng/ml.
For tartrate resistant acid phosphatase staining, a 1% solution is prepared and incubated with the cells for 30 min at room temperature. Cultures are then washed and cell number determined by manual counting.

mouse metatarsal bones = test: Ex vivo metatarsal explant bone growth and mineralization; type: cell-based; details: for bone growth and calcification: metatarsals derived from IGFBP-2−/− mice, 20-200 ng/ml
From the text: This system uses an ex vivo explant system, therefore it is a transition between cultured cells and in vivo experiments. The bone forming tissue is removed directly from a mouse and then grown in organ culture for several days. The test additives can be added directly to the medium at any concentration in order to test for biological activity. The method is as follows: mouse metatarsal bones were isolated from newborn mice between days 0 and 3 after birth using the dissecting microscope. The middle three metatarsals were used for all experiments. Three metatarsals were incubated per well in a 24 well tissue culture dish in DMEM containing 0.5% bovine serum, […], 1 mM beta glycerol phosphate at 37° C. The medium was replaced one day later and the metatarsals are cultured for up to 10 days. Growth was measured by quantitative increase in size, both length and width of the bones using an inverted phase microscope with a built in micrometer scaling bar for measurements. Mineralization was assessed by the addition of calcein (500 ng/ml) to the medium for 2 hrs prior to tissue fixation. Fluorescent images were captured using a digital camera attached to an inverted microscope and quantifying calcein fluorescence under the appropriate […] stimulus. Bone and cartilage histology were measured by fixing the bones in 4% PFA overnight and storing at 70% ethanol, followed by […] embedding sectioning and staining. Sections were stained with H&E, Alizaran red or alkaline phosphatase. For analysis of proteins, the tissue was homogenized in Laemmli sample buffer and gels were run using standard SDS polyacrylamide gel electrophoresis and western blotting.

| Molecule | concentration at which inhibition of adipocyte differentiation (decrease in oil red O positive cells) was detectable (3T3L1; 3T3L1, added at 20 ng/ml, 200 ng/ml and 2 ug/ml) [ng/mL] | concentration at which the response (inhibition of adipocyte differentiation) was maximal (3T3L1; 3T3L1, not increased further by 2 mcg/ml) [ng/mL] | oil red O positive cells at maximum effect of the peptide (3T3L1; typically 60-70% of the cells stain positive after 3 days) [%] | serum concentration at which osteoclast differentiation was still detected in the presence of the peptide (adherent macrophages) [%] | osteoclast differentiation (adherent macrophages) | bone growth and calcification (mouse metatarsal bones) | effect on bone growth (mouse metatarsal bones; metatarsals from normal mice) | concentrations found to inhibit adipocyte differentiation (3T3L1; 3T3L1, tested in parallel) [ng/mL] |
| --- | --- | --- | --- | --- | --- | --- | --- | --- |
| KHHLGLEEPKKLR (IGFBP-2 heparin binding domain-containing peptide sequence) [peptide of SEQ ID NO:1] | 20 | 200 | < 20 | 0.5 | would not differentiate into osteoclasts without addition | stimulated bone growth and calcification | modest additional stimulatory effect | – |
| B1 | – | – | – | – | would not differentiate into osteoclasts without addition | stimulated bone growth and calcification | – | 50 to 500 |
